Among the data in patent publication US20090203577A1 (EXELIXIS, INC., priority 2005, published 2009) are EC50 and Emax values, retold here.

Some results are limits rather than exact numbers.

The test concerns the target T1, human farnesoid X receptor (Homo sapiens, UniProt Q96RI1).
T1 construct: CMX-farnesoid X receptor (full length human farnesoid X receptor); expressed in transfected cells; host or cells: CV-1 African Green Monkey Kidney cells
T1 sequence (Q96RI1 1-472 isoform Q96RI1-2): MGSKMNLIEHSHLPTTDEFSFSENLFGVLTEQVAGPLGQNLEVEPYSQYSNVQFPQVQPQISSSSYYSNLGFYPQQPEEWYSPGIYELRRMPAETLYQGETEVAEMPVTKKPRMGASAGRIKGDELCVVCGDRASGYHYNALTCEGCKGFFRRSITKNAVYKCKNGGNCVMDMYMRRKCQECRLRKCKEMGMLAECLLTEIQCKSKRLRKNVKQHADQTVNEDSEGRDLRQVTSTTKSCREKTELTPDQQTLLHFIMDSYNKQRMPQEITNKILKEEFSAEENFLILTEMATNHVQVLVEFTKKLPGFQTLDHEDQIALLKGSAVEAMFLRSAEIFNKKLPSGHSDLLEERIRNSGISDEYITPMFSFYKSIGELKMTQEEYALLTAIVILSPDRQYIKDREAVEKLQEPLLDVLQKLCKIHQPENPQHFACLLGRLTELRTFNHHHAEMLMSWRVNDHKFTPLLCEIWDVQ
T1 sequence (P19793 1-462 partner): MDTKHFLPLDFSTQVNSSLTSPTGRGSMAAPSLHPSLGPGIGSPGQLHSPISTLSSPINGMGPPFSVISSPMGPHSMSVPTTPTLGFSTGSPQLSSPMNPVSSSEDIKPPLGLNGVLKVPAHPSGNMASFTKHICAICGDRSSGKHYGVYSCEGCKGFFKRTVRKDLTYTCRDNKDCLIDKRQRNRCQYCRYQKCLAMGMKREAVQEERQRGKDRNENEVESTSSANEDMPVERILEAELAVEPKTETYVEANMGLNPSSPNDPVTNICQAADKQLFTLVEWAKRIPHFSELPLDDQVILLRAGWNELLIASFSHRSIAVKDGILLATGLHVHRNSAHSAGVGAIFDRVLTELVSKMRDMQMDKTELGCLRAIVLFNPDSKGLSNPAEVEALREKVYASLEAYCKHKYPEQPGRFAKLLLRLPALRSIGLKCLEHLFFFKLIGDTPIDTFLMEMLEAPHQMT
Description: FXR in vitro assays (farnesoid X receptor/ECREx7 co-transfection assay, TR-FRET assay), Table I. The following applies: for EC50: agonist activity, one or more of the in vitro assays, read-out: EC50; for Emax: read-out: % Efficacy. It is filed as cell-based. The method, then:
The basic co-transfection protocol for measuring the farnesoid X receptor activity is as follows. CV-1 African Green Monkey Kidney cells were plated 24 hours before transfection to achieve approximately 70-80 percent confluency. […] The assay was allowed to continue for an additional 18-20 hours, after which the cells were lysed, with lysis buffer (1% triton X 100, 10% glycerol, 5 mM Dithiothreitol, 1 mM EGTA, 25 mM Tricine, pH 7.8) and the luciferase activity measured in the presence of Luciferase assay buffer (0.73 mM ATP, 22.3 mm Tricine, 0.11 mM EGTA, 0.55 mM Luciferin, 0.15 mM Coenzyme A, 0.5 mM HEPES, 10 mM Magnesium sulphatc) on a standard luminometer plate reader (PE Biosystems, NorthStar Reader), using recommended operating instructions and conditions.
The dose response curves are generated from an 8 point curve with concentrations differing by ½ LOG units. Each point represents the average of 4 wells of data from a 384 well plate. A curve for the data is generated by using the equation:
Y=Bottom+(Top−Bottom)/(1+10̂((Log EC50−X)*HillSlope))
The EC50/IC50 is therefore defined as the concentration at which an agonist or antagonist elicits a response that is half way between the Top (maximum) and Bottom (baseline) values. The EC50/IC50 values represented are the averages of at least 3 independent experiments.
For orientation: TR-FRET usually uses a lanthanide donor and a delayed reading to cut background.

As for `CC(C)OC(=O)C1=CN(C(=O)c2ccc(F)cc2F)CC(C)(C)c2c1[nH]c1ccccc21` [Example 73, 1-methylethyl 3-[(2,4-difluorophenyl)carbonyl]-1,1-dimethyl-1,2,3,6-tetrahydroazepino[4,5-b]indole-5-carboxylate], the EC50 lay within 0.001 to 0.01 µM and the Emax is over 100%.

For `CC(C)OC(=O)C1=CN(C(=O)c2cccc(F)c2F)CC(C)(C)c2c1[nH]c1ccccc21` [Example 74, 1-methylethyl 3-[(2,3-difluorophenyl)carbonyl]-1,1-dimethyl-1,2,3,6-tetrahydroazepino[4,5-b]indole-5-carboxylate], the EC50 was 0.001 to 0.01 µM and the Emax was over 100%.

On to `CC(C)OC(=O)C1=CN(C(=O)c2c(F)cccc2F)CC(C)(C)c2c1[nH]c1ccccc21` [Example 75, 1-methylethyl 3-[(2,6-difluorophenyl)carbonyl]-1,1-dimethyl-1,2,3,6-tetrahydroazepino[4,5-b]indole-5-carboxylate], for which the concentration giving a half-maximal response (EC50) is 0.001 to 0.01 µM and the Emax was over 100%.

In the case of `CC(C)OC(=O)C1=CN(C(=O)c2ccc(F)c(F)c2F)CC(C)(C)c2c1[nH]c1ccccc21` [Example 77, 1-methylethyl 1,1-dimethyl-3-[(2,3,4-trifluorophenyl)carbonyl]-1,2,3,6-tetrahydroazepino[4,5-b]indole-5-carboxylate], the EC50 lay within 0.001 to 0.01 µM and the Emax was over 100%.

On to `CC(C)OC(=O)C1=CN(C(=O)c2c(F)cc(F)cc2F)CC(C)(C)c2c1[nH]c1ccccc21` [Example 78, 1-methylethyl 1,1-dimethyl-3-[(2,4,6-trifluorophenyl)carbonyl]-1,2,3,6-tetrahydroazepino[4,5-b]indole-5-carboxylate], for which the EC50 lay in the range of 0.01 to 0.1 µM and the Emax was over 100%.

With `CC(C)OC(=O)C1=CN(C(=O)c2cc(F)c(F)cc2F)CC(C)(C)c2c1[nH]c1ccccc21` [Example 79, 1-methylethyl 1,1-dimethyl-3-[(2,4,5-trifluorophenyl)carbonyl]-1,2,3,6-tetrahydroazepino[4,5-b]indole-5-carboxylate], the EC50 was in the range of 0.001 to 0.01 µM and the Emax was over 100%.

As to `CC(C)OC(=O)C1=CN(C(=O)c2ccc(C(F)(F)F)c(F)c2)CC(C)(C)c2c1[nH]c1ccccc21` [Example 84, 1-methylethyl 3-{[3-fluoro-4-(trifluoromethyl)phenyl]car-bonyl}-1,1-dimethyl-1,2,3,6-tetrahydroazepino[4,5-b]indole-5-carboxylate], the concentration giving a half-maximal response (EC50) was 0.01 to 0.1 µM and the Emax was over 100%.

For `Cc1ccc(C(=O)N2C=C(C(=O)OC(C)C)c3[nH]c4ccccc4c3C(C)(C)C2)cc1` [Example 87, 1-methylethyl 1,1-dimethyl-3-[(4-methylphenyl)carbonyl]-1,2,3,6-tetrahydroazepino[4,5-b]indole-5-carboxylate], the EC50 was 0.01 to 0.1 µM and the Emax was over 100%.

Consider `COc1cccc(C(=O)N2C=C(C(=O)OC(C)C)c3[nH]c4ccccc4c3C(C)(C)C2)c1` [Example 88, 1-methylethyl 1,1-dimethyl-3-{[3-(methyloxy)phenyl]carbonyl}-1,2,3,6-tetrahydroazepino[4,5-b]indole-5-carboxylate], for which the concentration giving a half-maximal response (EC50) fell in the range of 0.01 to 0.1 µM and the Emax was over 100%.

`COc1ccc(C(=O)N2C=C(C(=O)OC(C)C)c3[nH]c4ccccc4c3C(C)(C)C2)cc1` [Example 89, 1-methylethyl 1,1-dimethyl-3-{[4-(methyloxy)phenyl)carbonyl}-1,2,3,6-tetrahydroazepino[4,5-b]indole-5-carboxylate]: the concentration giving a half-maximal response (EC50) was 0.001 to 0.01 µM and the Emax is over 100%.

With `CC(C)OC(=O)C1=CN(C(=O)c2cccc3c2OC(F)(F)O3)CC(C)(C)c2c1[nH]c1ccccc21` [Example 91, 1-methylethyl 3-[(2,2-difluoro-1,3-benzodioxol-4-yl)carbonyl]-1,1-dimethyl-1,2,3,6-tetrahydroazepino[4,5-b]indole-5-carboxylate], the EC50 fell in the range of 0.01 to 0.1 µM and the Emax is over 100%.

By EC50 is commonly meant the concentration needed to bring the measured effect to its halfway point.
